Holding throughout (test): filter binding assay of [14C] N-AS to COX2
Conditions in all cases: replicates

The target of one experiment is T1, COX2 N181A (Homo sapiens, UniProt P35354, N181A).
T1 construct: His (N); made in house
T1 sequence (P35354 18-604 N181A): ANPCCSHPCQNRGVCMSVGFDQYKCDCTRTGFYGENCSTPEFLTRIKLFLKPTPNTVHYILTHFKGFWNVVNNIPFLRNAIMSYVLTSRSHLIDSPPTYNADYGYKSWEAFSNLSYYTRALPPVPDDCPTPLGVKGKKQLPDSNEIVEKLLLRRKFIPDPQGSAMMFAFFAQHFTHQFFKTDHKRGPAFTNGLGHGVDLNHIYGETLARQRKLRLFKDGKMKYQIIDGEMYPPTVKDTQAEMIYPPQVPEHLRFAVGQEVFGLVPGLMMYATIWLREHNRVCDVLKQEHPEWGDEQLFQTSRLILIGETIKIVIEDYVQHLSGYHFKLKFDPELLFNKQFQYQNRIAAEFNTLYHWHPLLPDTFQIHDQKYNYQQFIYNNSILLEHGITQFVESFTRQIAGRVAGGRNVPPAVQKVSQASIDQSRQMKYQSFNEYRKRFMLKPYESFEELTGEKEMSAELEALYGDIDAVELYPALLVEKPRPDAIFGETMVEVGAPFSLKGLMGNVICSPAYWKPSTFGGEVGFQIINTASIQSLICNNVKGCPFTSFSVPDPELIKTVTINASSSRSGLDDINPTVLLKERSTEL
An excerpt: (§1) Single point mutations in SphK1 (R56A, R57A, R24A, R185A, D178A, and F192A) and COX2 (S565A, N181A, T564A, and S567A) were generated using the In-Fusion Cloning Kits (Clontech) and ORF cDNA expression plasmids of human SphK1 and COX2 gene (Sino Biological Inc, HG15679-NH and HG12036-NH), according to the manufacturer’s instructions. The forward and reverse primers described in Supplementary Table 4. The SphK1 WT, SphK1 mutants, COX2 WT, and COX2 mutant plasmids were transformed in the One shot TOP 10 competent cell (Invitrogen). The bacteria were grown in Luria-Bertani (LB, Invitrogen) plates supplemented with 50 μg ml^−1 kanamycin (Sigma-Aldrich) at 37 °C. The bacterial cell pellets were resuspended in lysis buffer containing 20 mM sodium phosphate (GE Healthcare), 500 mM NaCl (GE Healthcare), 20 mM imidazole (pH 7.4) (GE Healthcare), 0.2 mg ml^−1 lysozyme (Sigma-Aldrich), 20 μg ml^−1 DNase I (Roche), 1 mM MgCl2 (Sigma-Aldrich), and 1 mM PMSF (Sigma-Aldrich) before being lysed by sonication and clarified by centrifugation at 15,493×g for 10 min. Proteins were purified from the soluble fraction using His-Spin Trap columns (GE Healthcare) and the binding and acetylation assays were performed.
(§2) Briefly, SphK1 WT and mutant enzymes (1 mU) were resuspended in 100 μl reaction buffer (20 mM HEPES; pH 7.4, 50 mM NaCl, 10 mM MgCl2, 1 mM EGTA, 0.02% Triton-X100, and 100 μM sphingosine, all from Sigma-Aldrich). […] Briefly, COX2 WT and mutant enzymes (1 mU) were resuspended in 100 μl reaction buffer (20 mM HEPES; pH 7.4, 50 mM NaCl, 10 mM MgCl2, 1 mM EGTA, and 0.02% Triton-X100, all from Sigma-Aldrich). Reactions were initiated by adding [^14C] N-AS (1–200 μM (0.1–20 μCi), ARC UK Ltd, ARC-1024) and incubated at 37 °C for 1 h. The reactions were terminated by adding 100 μl of ice-cold reaction buffer containing 5 mM cold N-AS and immediately filtered through P30 filtermat (Perkin-Elmer), followed by five washes.
(§3) The binding velocity was plotted and the Kcat and KM values were calculated from the Michaelis-Menten analysis using the Sigma-plot program (ver 10.0, Systat software Inc.).

Another experiment addresses T2, COX2 S567A (Homo sapiens, UniProt P35354, S567A).
T2 construct: His (N); made in house
T2 sequence (P35354 18-604 S567A): T1 sequence (P35354 18-604 N181A) with A164N, S550A
From the text: as §1, §2, §3

In the next experiment the target is T3, COX2 T564A (Homo sapiens, UniProt P35354, T564A).
T3 construct: His (N); made in house
T3 sequence (P35354 18-604 T564A): T1 sequence (P35354 18-604 N181A) with A164N, T547A
From the text: as §1, §2, §3

Substitutions are numbered along the chain they refer to. Several values for one entry are separate records, joined by “and”; a condition that tells them apart may be missing. Identical values can stand only once.

Regarding `CCCCCCCCCCCCC/C=C/[C@@H](O)[C@H](CO)NC(C)=O` [N-AS, N-((2S,3R,E)-1,3-Dihydroxyoctadec-4-en-2-yl)acetamide], the “binding velocity (Vbinding)” value on COX2 N181A (1 uM) was 0.642 nM/min and 0.892 nM/min and 0.879 nM/min; on COX2 N181A (5 uM) it was 7.037 nM/min and 14.518 nM/min and 5.980 nM/min; on COX2 N181A (10 uM) it was 11.465 nM/min and 12.134 nM/min and 6.758 nM/min; at COX2 N181A (20 uM) it was 15.248 nM/min and 14.109 nM/min and 13.356 nM/min; at COX2 N181A (100 uM), 24.771 nM/min and 29.019 nM/min and 25.078 nM/min; on COX2 N181A (200 uM), 41.872 nM/min and 40.849 nM/min and 37.213 nM/min. Also, the “binding velocity (Vbinding)” value is 0.844 nM/min and 0.872 nM/min and 0.519 nM/min on COX2 S567A (0.2 uM); 1.046 nM/min on COX2 S567A (1 uM); 0.251 nM/min and 0.379 nM/min and 0.622 nM/min on COX2 T564A (1 uM); 7.230 nM/min and 6.808 nM/min and 11.168 nM/min at COX2 T564A (5 uM); 7.378 nM/min and 8.069 nM/min and 9.338 nM/min at COX2 T564A (10 uM); 12.382 nM/min and 16.697 nM/min and 16.993 nM/min on COX2 T564A (20 uM). The “binding velocity (Vbinding)” value is 28.376 nM/min and 29.582 nM/min and 24.951 nM/min on COX2 T564A (100 uM); 37.587 nM/min and 41.759 nM/min and 47.017 nM/min on COX2 T564A (200 uM).
